These are literature values, as cited in patent US7163699B2, “Progestin co-micronized with a surfactant pharmaceutical composition comprising same methods for making same and uses thereof” (Laboratories Besins International, priority 2001, dated 2007).

Structures are written as SMILES.

The conditions of the data set: co-micronization with sodium lauryl sulfate or a sucrose ester of stearic acid.

Consider `O=C1NC(=O)C(c2ccccc2)(c2ccccc2)N1` [phenitoin], for which the solubility of phenitoin entry is “not improved”.
